Measured values from the supplement of paper PMC10307832.

Assays:
Assay in all cases: relative viability (nuclei count vs DMSO), 5 days (fraction); higher = more cells survive
Midostaurin + Foretinib = compound: CO[C@@H]1[C@H](N(C)C(=O)c2ccccc2)C[C@H]2O[C@]1(C)n1c3ccccc3c3c4c(c5c6ccccc6n2c5c31)C(=O)NC4 [Midostaurin] + COc1cc2c(Oc3ccc(NC(=O)C4(C(=O)Nc5ccc(F)cc5)CC4)cc3F)ccnc2cc1OCCCN1CCOCC1 [Foretinib] (partner 0.25 µM)
Outline: (§1)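 Lung cancer cell lines in 1536-well plates got either a single drug or a fixed anchor-drug dose together with five library-drug doses (not always all listed) in √10 steps, by pin tool, on the day after seeding. Nuclei were counted after 5 days, and relative viability is the treated-to-vehicle ratio of nuclei counts. Values are medians of duplicate plates.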

Midostaurin + OSI-027 = compound: CO[C@@H]1[C@H](N(C)C(=O)c2ccccc2)C[C@H]2O[C@]1(C)n1c3ccccc3c3c4c(c5c6ccccc6n2c5c31)C(=O)NC4 [Midostaurin] + COc1cccc2cc(-c3nc([C@H]4CC[C@H](C(=O)O)CC4)n4ncnc(N)c34)[nH]c12 [OSI-027] (partner 0.5 µM)
Outline: as §1

Midostaurin + Vorinostat = compound: CO[C@@H]1[C@H](N(C)C(=O)c2ccccc2)C[C@H]2O[C@]1(C)n1c3ccccc3c3c4c(c5c6ccccc6n2c5c31)C(=O)NC4 [Midostaurin] + O=C(CCCCCCC(=O)Nc1ccccc1)NO [Vorinostat] (partner 1 µM)
Outline: as §1

[1] = compound: COc1cc(-c2nn([C@H]3CC[C@H](N4CCN(C(C)=O)CC4)CC3)c3ncnc(N)c23)ccc1NC(=O)c1cc2ccccc2n1C + CC(C)C[C@H](NC(=O)[C@H](Cc1ccccc1)NC(=O)c1cnccn1)B(O)O [Bortezomib] (partner 0.002 µM)
Outline: as §1

[2] = compound: COc1cc(-c2nn([C@H]3CC[C@H](N4CCN(C(C)=O)CC4)CC3)c3ncnc(N)c23)ccc1NC(=O)c1cc2ccccc2n1C + C[C@@H](Oc1cc(-c2cnn(C3CCNCC3)c2)cnc1N)c1c(Cl)ccc(F)c1Cl [Crizotinib] (partner 1 µM)
Outline: as §1

## UMC-11
Midostaurin + Foretinib; first compound 0.01 µM
  relative viability: 1.08
Midostaurin + Foretinib; first compound 0.03162 µM
  relative viability: 0.946
Midostaurin + Foretinib; first compound 0.1 µM
  relative viability: 0.868
Midostaurin + Foretinib; first compound 0.3162 µM
  relative viability: 0.234
Midostaurin + OSI-027; first compound 0.01 µM
  relative viability: 0.473
Midostaurin + OSI-027; first compound 0.03162 µM
  relative viability: 0.463
Midostaurin + OSI-027; first compound 0.1 µM
  relative viability: 0.536
Midostaurin + OSI-027; first compound 0.3162 µM
  relative viability: 0.293
Midostaurin + Vorinostat; first compound 0.01 µM
  relative viability: 0.424
Midostaurin + Vorinostat; first compound 0.03162 µM
  relative viability: 0.445
Midostaurin + Vorinostat; first compound 0.1 µM
  relative viability: 0.242
Midostaurin + Vorinostat; first compound 0.3162 µM
  relative viability: 0.187
[1]; first compound 0.0128 µM
  relative viability: 0.728
[1]; first compound 0.04048 µM
  relative viability: 0.687
[1]; first compound 0.128 µM
  relative viability: 0.668
[1]; first compound 1.28 µM
  relative viability: 0.655
[2]; first compound 0.0128 µM
  relative viability: 0.638
[2]; first compound 0.04048 µM
  relative viability: 0.627
[2]; first compound 0.128 µM
  relative viability: 0.64
[2]; first compound 1.28 µM
  relative viability: 0.479
